In patent US7598397B2, “Sulfonamide peri-substituted bicyclics for occlusive artery disease” (deCODE genetics ehf, priority 2004, dated 2009):

These molecules were tested against T1, prostanoid EP3 receptors (Homo sapiens, UniProt P43115) (assay: binding on prostanoid EP3 receptors (method of Abramovitz et al.)). Settings: read-out: Activity (EP3 receptor binding, IC50 class).
T1 sequence (P43115 1-390): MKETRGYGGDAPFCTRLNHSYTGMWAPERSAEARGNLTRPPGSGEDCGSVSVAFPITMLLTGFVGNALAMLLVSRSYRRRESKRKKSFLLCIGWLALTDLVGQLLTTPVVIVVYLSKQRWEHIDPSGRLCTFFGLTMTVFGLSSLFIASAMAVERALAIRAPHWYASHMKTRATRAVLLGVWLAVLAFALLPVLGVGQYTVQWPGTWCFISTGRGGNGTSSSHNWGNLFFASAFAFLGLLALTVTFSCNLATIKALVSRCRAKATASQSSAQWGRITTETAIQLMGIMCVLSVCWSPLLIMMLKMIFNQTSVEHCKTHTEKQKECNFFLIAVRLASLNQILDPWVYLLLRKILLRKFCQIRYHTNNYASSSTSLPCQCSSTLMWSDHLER
Description: The compounds of the invention were assayed for their binding on prostanoid EP3 receptors according to the method of Abramovitz et al. [Bioch. Biophys.

`Cn1cc(C=CC(=O)NS(=O)(=O)c2ccc(F)c(F)c2)c2c(Oc3ccc(Cl)cc3)cccc21` [Compound P310] and `Cn1cc(C=CC(=O)NS(=O)(=O)c2ccc(F)c(F)c2)c2c(Oc3ccc(Cl)cc3Cl)cccc21` [Compound P302] cannot be ordered by IC50: less than 1 µM for the first, less than 1 µM for the second.

`Cn1cc(C=CC(=O)NS(=O)(=O)c2cc(F)c(F)cc2F)c2c(Oc3cnc4ccccc4n3)cccc21` [Compound P394] and `Cn1cc(C=CC(=O)NS(=O)(=O)c2ccc(F)c(F)c2)c2c(Oc3cnc4ccccc4n3)cccc21` [Compound P393] cannot be ordered by IC50: less than 1 µM for the first, less than 1 µM for the second.

`O=C(C=Cc1cccc2c1N(Cc1ccc(Cl)cc1Cl)C(=O)C2(O)C[N+](=O)[O-])NS(=O)(=O)c1cc(Cl)c(Cl)s1` (stereo not shown) [Compound P134] and `O=C(C=Cc1cccc2c1N(Cc1ccc(Cl)cc1Cl)C(=O)C2)NS(=O)(=O)c1cc(Cl)c(Cl)s1` [Compound P127] cannot be ordered by IC50: less than 1 µM for the first, less than 1 µM for the second.

`Cc1cn(Cc2ccc(F)cc2)c2c(C=CC(=O)NS(=O)(=O)c3cc(F)c(F)cc3F)cc(F)cc12` [Compound P312] and `Cc1cn(Cc2ccc(F)cc2)c2c(C=CC(=O)NS(=O)(=O)c3ccc(F)c(F)c3)cc(F)cc12` [Compound P314] cannot be ordered by IC50: less than 1 µM for the first, less than 1 µM for the second.

`Cn1cc(/C=C/C(=O)NS(=O)(=O)c2cc(F)c(F)cc2F)c2c(Oc3ccc4ccccc4c3)cccc21` [Compound P343] and `Cn1cc(C=CC(=O)NS(=O)(=O)c2cc(F)ccc2F)c2c(Oc3ccc4ccccc4c3)cccc21` [Compound P359] cannot be ordered by IC50: less than 1 µM for the first, less than 1 µM for the second.

`O=C(C=Cc1cccc2c1N(Cc1ccc3ccccc3c1)C(=O)C2(F)F)NS(=O)(=O)c1cccs1` [Compound P218] and `O=C(C=Cc1cccc2c1N(Cc1ccc3ccccc3c1)C(=O)C2(O)C(F)(F)F)NS(=O)(=O)c1cccs1` (stereo not shown) [Compound P104] cannot be ordered by IC50: less than 1 µM for the first, less than 1 µM for the second.

`CC12CCCC(C=CC(=O)NS(=O)(=O)c3ccc(F)c(F)c3)=C1N(Cc1cccc(Cl)c1Cl)C(=O)C2` (stereo not shown) [Compound P297] and `CC12CCCC(C=CC(=O)NS(=O)(=O)c3cc(F)cc(F)c3)=C1N(Cc1cccc(Cl)c1Cl)C(=O)C2` (stereo not shown) [Compound P298] cannot be ordered by IC50: less than 1 µM for the first, less than 1 µM for the second.

`Cc1cn(Cc2ccc3c(c2)OCO3)c2c(/C=C/C(=O)NS(=O)(=O)c3cccs3)cccc12` [Compound P101] and `Cc1cn(Cc2cc3c(cc2Cl)OCO3)c2c(/C=C/C(=O)NS(=O)(=O)c3cccs3)cccc12` [Compound P089] cannot be ordered by IC50: less than 1 µM for the first, less than 1 µM for the second.

`Cc1cn(Cc2ccc(Cl)cc2Cl)c2c(C=CC(=O)NS(=O)(=O)c3cc(Cl)c(Cl)s3)cncc12` [Compound P348] and `O=Cc1cn(Cc2ccc(Cl)cc2Cl)c2c(C=CC(=O)NS(=O)(=O)c3cc(Cl)c(Cl)s3)cc(F)cc12` [Compound P396] cannot be ordered by IC50: less than 1 µM for the first, less than 1 µM for the second.

`Cc1cn(Cc2cn3ccccc3n2)c2c(C=CC(=O)NS(=O)(=O)c3cc(Cl)cc(Cl)c3)cc(F)cc12` [Compound P408] and `Cc1cn(Cc2cn3ccccc3n2)c2c(C=CC(=O)NS(=O)(=O)c3ccc(F)cc3F)cc(F)cc12` [Compound P413] cannot be ordered by IC50: less than 1 µM for the first, less than 1 µM for the second.

`O=C(C=Cc1cnn2ccn(Cc3ccc4ccccc4c3)c12)NS(=O)(=O)c1cccs1` [Compound P034] and `O=C(C=Cc1cccc2c1N(Cc1ccc3ccccc3c1)C(=O)C2=O)NS(=O)(=O)c1cccs1` [Compound P096] cannot be ordered by IC50: less than 1 µM for the first, less than 1 µM for the second.

First: O=C(COc1cccc2c1N(Cc1ccc(Cl)cc1)C(=O)CO2)NS(=O)(=O)c1cccs1 [Compound P025]
Second: COc1cc(CN2C(=O)COc3cccc(OCC(=O)NS(=O)(=O)c4cccs4)c32)cc(OC)c1 [Compound P041]
The IC50 of the first is higher: greater than 10 µM for the first, 1 to 10 µM for the second.

`Cn1cc(C=CC(=O)NS(=O)(=O)c2cc(Cl)cc(Cl)c2)c2c(Oc3ccc4ccccc4c3)cccc21` [Compound P357] and `Cn1cc(C=CC(=O)NS(=O)(=O)c2ccc(Cl)cc2Cl)c2c(Oc3ccc4ccccc4c3)cccc21` [Compound P356] cannot be ordered by IC50: less than 1 µM for the first, less than 1 µM for the second.

`COc1cccc(CN2C(=O)CC3(C)CCCC(C=CC(=O)NS(=O)(=O)c4ccc(F)c(F)c4)=C23)c1` (stereo not shown) [Compound P308] and `COc1cccc(CN2C(=O)CC3(C)CCCC(C=CC(=O)NS(=O)(=O)c4cc(F)cc(F)c4)=C23)c1` (stereo not shown) [Compound P307] cannot be ordered by IC50: less than 1 µM for the first, less than 1 µM for the second.

`O=C(C=Cc1cccc2c1N(Cc1ccc(Cl)cc1Cl)C(=O)C2(F)F)NS(=O)(=O)c1cccs1` [Compound P216] and `CC(=O)c1cn(Cc2ccc(Cl)cc2Cl)c2c(C=CC(=O)NS(=O)(=O)c3cccs3)cccc12` [Compound P085] cannot be ordered by IC50: less than 1 µM for the first, less than 1 µM for the second.

`O=C(C=Cc1cccc2c1N(Cc1ccc3ccccc3c1)C(=O)C2(F)F)NS(=O)(=O)c1cc(Cl)c(Cl)s1` [Compound P180] and `CC1(F)C(=O)N(Cc2ccc3ccccc3c2)c2c(C=CC(=O)NS(=O)(=O)c3cc(Cl)c(Cl)s3)cccc21` (stereo not shown) [Compound P161] cannot be ordered by IC50: less than 1 µM for the first, less than 1 µM for the second.

`CC12CCCC(C=CC(=O)NS(=O)(=O)c3cc(Cl)c(Cl)s3)=C1N(Cc1ccc(F)cc1)C(=O)C2` (stereo not shown) [Compound P263] and `CC12CCCC(C=CC(=O)NS(=O)(=O)c3cc(F)cc(F)c3)=C1N(Cc1ccc(F)cc1)C(=O)C2` (stereo not shown) [Compound P295] cannot be ordered by IC50: less than 1 µM for the first, less than 1 µM for the second.

`Cc1cn(Cc2ccc(F)cc2)c2c(/C=C/C(=O)NS(=O)(=O)c3cc(Cl)c(Cl)s3)cccc12` [Compound P120] and `Cc1cn(Cc2ccc(OC(F)F)cc2)c2c(/C=C/C(=O)NS(=O)(=O)c3cc(Cl)c(Cl)s3)cccc12` [Compound P145] cannot be ordered by IC50: less than 1 µM for the first, less than 1 µM for the second.

`CCOC(=O)C12CCCC(C=CC(=O)NS(=O)(=O)c3cc(F)c(F)cc3F)=C1N(Cc1ccc(Cl)cc1Cl)C(=O)C2` (stereo not shown) [Compound P344] and `COc1cccc(CN2C(=O)CC3(C)CCCC(C=CC(=O)NS(=O)(=O)c4cc(F)c(F)cc4F)=C23)c1` (stereo not shown) [Compound P306] cannot be ordered by IC50: less than 1 µM for the first, less than 1 µM for the second.

`Cn1cc(C=CC(=O)NS(=O)(=O)c2ccc(F)c(F)c2)c2c(Oc3ccc(F)cc3Cl)cccc21` [Compound P341] and `Cn1cc(C=CC(=O)NS(=O)(=O)c2cc(F)c(F)cc2F)c2c(Oc3ccc(F)cc3Cl)cccc21` [Compound P340] cannot be ordered by IC50: less than 1 µM for the first, less than 1 µM for the second.

`CC12CCCC(CCC(=O)NS(=O)(=O)c3cc(F)c(F)cc3F)C1N(Cc1ccc(F)c(F)c1)C(=O)C2` (stereo not shown) [Compound P410] and `CC12CCCC(C=CC(=O)NS(=O)(=O)c3cc(F)cc(F)c3)=C1N(Cc1ccc(F)c(F)c1)C(=O)C2` (stereo not shown) [Compound P305] cannot be ordered by IC50: less than 1 µM for the first, less than 1 µM for the second.

`CN1C(=O)C(Nc2ccc3ccccc3c2)c2c(C=CC(=O)NS(=O)(=O)c3cc(Cl)c(Cl)s3)cccc21` (stereo not shown) [Compound P242] and `O=C(C=Cc1cccc2c1C(Nc1cc(Cl)cc(Cl)c1)C(=O)N2)NS(=O)(=O)c1cc(Cl)c(Cl)s1` (stereo not shown) [Compound P286] cannot be ordered by IC50: less than 1 µM for the first, less than 1 µM for the second.

`Cc1cn(CCC(=O)NS(=O)(=O)c2ccc(F)c(F)c2)c2c(Oc3ccc4ccccc4c3)cc(F)cc12` [Compound P379] and `Cc1cn(CCC(=O)NS(=O)(=O)c2ccc(F)c(F)c2)c2c(Oc3ccc(Cl)c(Cl)c3)cc(F)cc12` [Compound P387] cannot be ordered by IC50: less than 1 µM for the first, less than 1 µM for the second.

`Cn1cc(CCC(=O)NS(=O)(=O)c2ccc(F)c(F)c2)c2c(Oc3ccc4ccccc4c3)cccc21` [Compound P362] and `Cn1cc(C=CC(=O)NS(=O)(=O)c2c(F)cccc2F)c2c(Oc3ccc4ccccc4c3)cccc21` [Compound P360] cannot be ordered by IC50: less than 1 µM for the first, less than 1 µM for the second.

`Cc1cn(CCC(=O)NS(=O)(=O)c2cc(Cl)c(Cl)s2)c2c(Oc3ccc(Cl)c(Cl)c3)cc(F)cc12` [Compound P388] and `Cc1cn(Cc2ccc3ccccc3c2)c2c(CCC(=O)NS(=O)(=O)c3cc(Cl)c(Cl)s3)cccc12` [Compound P073] cannot be ordered by IC50: less than 1 µM for the first, less than 1 µM for the second.

`Cc1ccc(C)c(Cn2ccc3cccc(C=CC(=O)NS(=O)(=O)c4cccs4)c32)c1` [Compound P008] and `Cc1cn(Cc2ccc3ccccc3n2)c2c(/C=C/C(=O)NS(=O)(=O)c3cccs3)cccc12` [Compound P099] cannot be ordered by IC50: less than 1 µM for the first, less than 1 µM for the second.

`O=C(C=Cc1cccc2c1N(Cc1ccc3ccccc3c1)C(=O)C21OCCO1)NS(=O)(=O)c1cccs1` [Compound P083] and `COc1ccc(Br)cc1S(=O)(=O)NC(=O)COc1cccc2oc(=O)n(Cc3ccc4ccccc4c3)c12` [Compound P047] cannot be ordered by IC50: less than 1 µM for the first, less than 1 µM for the second.

`Cc1cn(Cc2ccccc2Cl)c2c(/C=C/C(=O)NS(=O)(=O)c3cc(Cl)c(Cl)s3)cccc12` [Compound P123] and `Cc1cn(Cc2ccc(F)c(F)c2)c2c(/C=C/C(=O)NS(=O)(=O)c3cc(Cl)c(Cl)s3)cccc12` [Compound P135] cannot be ordered by IC50: less than 1 µM for the first, less than 1 µM for the second.

`Cc1cn(Cc2ccc(Cl)cc2Cl)c2c(C=CC(=O)NS(=O)(=O)c3ccccc3)cccc12` [Compound P090] and `COc1cc(Cn2cc(C)c3cc(F)cc(C=CC(=O)NS(=O)(=O)c4ccc(F)c(F)c4)c32)cc(OC)c1` [Compound P374] cannot be ordered by IC50: less than 1 µM for the first, less than 1 µM for the second.

First: O=C(COc1cccc2oc(=O)n(Cc3ccc4c(c3)OCO4)c12)NS(=O)(=O)c1cccs1 [Compound P050]
Second: CC(=O)Nc1ccc(Sc2c[nH]c3cccc(OCC(=O)NS(=O)(=O)c4cc(Cl)c(Cl)s4)c23)cc1 [Compound P233]
The IC50 of the first is higher: 1 to 10 µM for the first, less than 1 µM for the second. The second is the more potent here.

First: Cn1cc(C=CC(=O)NS(=O)(=O)c2cc(F)c(F)cc2F)c2c(Oc3ccc(F)c(F)c3)cccc21 [Compound P318]
Second: Cn1nc(NS(=O)(=O)c2cc(Cl)c(Cl)s2)c2c(Oc3ccc4ccccc4c3)cccc21 [Compound P284, 4,5-Dichloro-thiophene-2-sulfonic acid [1-methyl-4-(naphthalen-2-yloxy)-1H-indazol-3-yl]-amide]
The IC50 of the first is lower: less than 1 µM for the first, 1 to 10 µM for the second.

`Cc1nnc(Sc2c[nH]c3cccc(OCC(=O)NS(=O)(=O)c4cc(Cl)c(Cl)s4)c23)s1` [Compound P230] and `Cn1nnnc1S(=O)(=O)c1c[nH]c2cccc(OCC(=O)NS(=O)(=O)c3cc(Cl)c(Cl)s3)c12` [Compound P239] cannot be ordered by IC50: less than 1 µM for the first, less than 1 µM for the second.
